Experimental data published in patent publication US12281328B2, “Photoreceptor cells for the treatment of retinal diseases” (Hadasit Medical Research Services and Development Ltd., priority 2017, dated 2025).
One block for each molecule: values may come before it.

Tested on: hESC-derived spheroid bodies (SBs), HAD-C102
Assay: Real-time PCR of eye field, retinal progenitor and photoreceptor progenitor markers in SBs cultured with factor combinations
Assay type: cell-based, human
Procedure: SBs were generated under non-adherent conditions (day 0) from cord-feeder-conditioned media culture systems, or from feeder free laminin 521 culture systems, as described above. SBs were cultured in the following medium: […]® minus medium (Biological industries, Beit Haemek, Israel) supplemented with 50 U/ml penicillin and 50 μg/ml streptomycin (Gibco-BRL, Carlsbad, Calif.). In the initial 0 to 6 days of SBs culture (under non-adherent conditions), the medium was supplemented with 10 mM nicotinamide (Sigma, St. Louis, Mo.). It was further supplemented with the addition of the following factors in different combinations: 10 mM nicotinamide (Sigma, St. Louis, Mo.), 3 μM endo-IWR 1 (IWR1e; TOCRIS, a biotechne brand, Minneapolis, Minn.), 20 ng/ml bFGF (PeproTech Inc., Rocky Hill, N.J.), 5 ng/ml IGF1 (R&D Systems Inc., Minneapolis, Minn.) and 3 μM CHIR99021 (CHIR; PeproTech Inc., Rocky Hill, N.J.).
Real-time PCR was used to determine the expression of eye field and retinal progenitor markers and photoreceptor progenitor markers. mRNA was extracted using QUICK-RNA Micro Prep, Zymo Research (Cat #R1051) and the RT reaction was accomplished with QSCRIPT™ reverse transcriptase (Quanta BioScience Inc., Gaithersburg, Md.). The levels of transcripts were monitored using commercially available TAQMAN™ Assay-on-Demand Gene Expression Products (Applies Biosystems, Foster City, Calif.). The expression of eye field and photoreceptor precursor markers were analyzed at time points of 14 days to 8 weeks. At Time point 0 (TO), the derivation of SBs and the beginning of their culture in non-adherent culture dishes were initiated.
SBs were treated with combinations of NIC, bFGF, CHIR and IGF1 for 1 month. At the end of these culture periods, the expression of eye field and retinal progenitor markers (Rx, Six3, Six6, Chx10) and photoreceptor progenitor markers (NRL, CRX) was analyzed by Real-time PCR. […] FIG. 3 through FIG. 8 show graphs illustrating marker expression of Six3, Six6, Chx10, Rx, CRX, and NRL, respectively, in SBs cultured in NIC+bFGF or NIC+IGF or NIC+bFGF+CHIR for 4 weeks. Relative quantity of gene expression is plotted against different conditions. FIG. 9 through FIG. 14 show graphs illustrating marker expression of Six3, Six6, Chx10, Rx, CRX, and NRL, respectively, in SBs cultured in NIC+bFGF or NIC+bFGF+CHIR for 17 days. The control, HADC102, was comprised of undifferentiated HAD-C102 cells cultured for 6-7 days in […]® hPSC XF*Xeno-free medium for Human Pluripotent Stem Cells (Biological Industries).

- expression of all the markers analyzed (Rx, Pax6, Six3, Six6, Chx10) (SBs from hESCs cultured on laminin 521 vs gelatin in cord feeder conditioned medium, NIH 5 weeks, FIG. 50-58): higher
- efficiency of differentiation (initial culturing of hESC on laminin 521 vs gelatin in feeder cell conditioned medium): more efficient differentiation result
Molecule: Laminin 521: laminin 521 (BioLamina) coating for feeder-free culture of hESCs before SB formation

Molecule: NC(=O)c1cccnc1 [NIC, nicotinamide]
- generation of photoreceptor cells from human pluripotent stem cells (evidenced by expression of markers of photoreceptor cells (RT-PCR)): sufficient to generate photoreceptor cells from human pluripotent stem cells

- expression of the eye field and retinal progenitor markers Pax6, Rx, Six3, Six6 and Chx10 (compared among NIC+IWR1e, NIC, IWR1e, IWR1e+bFGF, FIG. 26-35): much lower
Molecule: O=C(Nc1cccc2cccnc12)c1ccc(N2C(=O)[C@@H]3[C@H](C2=O)[C@@H]2C=C[C@H]3C2)cc1 [IWR1e, 4-[(3aR,4S,7R,7aS)-1,3,3a,4,7,7a-hexahydro-1,3-dioxo-4,7-metha-no-2H-isoindol-2-yl]-N-8-quinolinyl-benzamide]
- expression of markers of hESC-derived photoreceptor progenitors (SBs cultured 20 days, Pax6, Six3, Rx, Six6, Chx10, FIG. 21-25): induced the expression of markers of hESC-derived photoreceptor progenitors
